What all share (assay): DTP human tumour cell line panel, 48 h
In assay [1] the test system is 786-0 renal.
For assay [2], the system named is BT-549 breast.
Assay [3] deals with HCC-2998 colon.
For assay [4], the system named is HL-60(TB) leukemia.
For assay [5], the system named is HS 578T breast.
Assay [6] concerns IGROV1 ovarian.
In assay [7] the test system is MALME-3M melanoma.
Assay [8] deals with NCI-H226 lung.
Assay [9] relates to NCI-H23 lung.
The test system of assay [10] is NCI/ADR-RES ovarian.
For assay [11], the system named is OVCAR-8 ovarian.
The test system of assay [12] is RPMI-8226 leukemia.
For assay [13], the system named is SF-268 CNS.
The test system of assay [14] is SF-295 CNS.
Assay [15] deals with SF-539 CNS.
For assay [16], the system named is SK-OV-3 ovarian.
In assay [17] the test system is U251 CNS.
For assay [18], the system named is UACC-257 melanoma.
Assay [19] deals with UO-31 renal.
The test system of assay [20] is K-562 leukemia.

Molecules are shown by their SMILES.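 Interpolation was linear, between the two tested concentrations surrounding the appropriate level; five concentrations were tested over 48 hours in 96-well plates. TGI is the concentration that stops growth completely.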 Where a SMILES comes first, the peptide text is derived from it. [ ]: non-standard residue; d: D form. The star is where a group is joined. ξ: configuration not given here. ξPhe(4-NO2) = NC(Cc1ccc([N+](=O)[O-])cc1)C(=O)O; Boc = CC(C)(C)OC(=O)*; OBn = c1ccc(CO*)cc1

`COc1cc2c(cc1OC)C1C(O)C(OC)C=C3CC[N+](C)(C2)C31` (stereo not drawn): the TGI in [1], in [2], in assay [3], in [4], in assay [5] and in assay [6] was > 100 µM throughout. Besides, the TGI in assay [7], in assay [8], in assay [9], in assay [10], in [11] and in [12] was > 100 µM in each case. Moreover, the TGI in assay [13], in assay [14], in assay [15], in [16], in assay [17] and in assay [18] was > 100 µM in each case. Besides, in assay [19], the concentration for total growth inhibition (TGI) was > 100 µM.
Consider `CC1=CC2(O)OC3(CC2=C(C)C)C(C)CCC13` (stereo not drawn), for which the TGI in [1], in [2], in assay [4], in assay [5], in assay [6] and in assay [20] was > 100 µM in each case. Moreover, the TGI in assay [7], in assay [8], in assay [9], in assay [10], in assay [11] and in assay [12] was > 100 µM throughout. The TGI in assay [13], in assay [14], in [15], in assay [16], in assay [17] and in assay [18] was > 100 µM throughout. Moreover, in [19], the TGI is > 100 µM.
With `COC1C=C(NCC2(CO)CCC2)NC(N)=N1` (stereo not drawn), the TGI in assay [1], in [2], in assay [3], in assay [4], in assay [5] and in assay [6] was > 100 µM in each case. The TGI in assay [20], in assay [7], in assay [8], in assay [9], in [10] and in assay [11] was > 100 µM throughout. Moreover, the concentration for total growth inhibition (TGI) in [12], in assay [13], in assay [14], in [16], in assay [17] and in assay [18] was > 100 µM each time. In addition, the TGI in [19] was > 100 µM.
Take `C[C@]12CC(c3ccccc3O1)C(C#N)C(=O)N2` (stereo partly drawn): the TGI in assay [1], in assay [2], in assay [3], in assay [4], in assay [5] and in assay [6] was > 100 µM in each case. Further, the TGI in [20], in assay [7], in assay [8], in assay [9], in [10] and in assay [11] was > 100 µM each time. Besides, the concentration for total growth inhibition (TGI) in assay [12], in assay [13], in assay [16], in [17] and in [18] was > 100 µM each time.
Turning to `O=c1n(-c2ccccc2)c(=O)n2n1C1CCC2CC1`, the TGI in assay [1], in assay [2], in assay [4], in assay [5], in assay [6] and in assay [20] was > 100 µM each time. The TGI in [8], in assay [9], in assay [10], in assay [11], in assay [12] and in [13] was > 100 µM in each case. The concentration for total growth inhibition (TGI) in assay [14], in assay [15], in assay [16], in assay [17], in assay [18] and in [19] was > 100 µM throughout.
Take `CC1=NN2C(=O)CC(=O)N=C2S1`: the TGI in assay [1], in assay [2], in assay [4], in assay [5], in assay [6] and in [20] was > 100 µM throughout. The TGI in assay [7], in [8], in assay [9], in assay [10], in [11] and in assay [12] was > 100 µM throughout. Besides, the total growth inhibition concentration (TGI) in assay [13], in assay [14], in assay [15], in [16], in [17] and in assay [18] was > 100 µM in each case.
For the compound `CCCCSC1=N/C(=C\c2ccco2)C(=O)N1`, the TGI in assay [1] was > 100 µM; in assay [2], > 100 µM; in assay [3], > 100 µM; in assay [4], > 100 µM; in assay [5], 88.3 µM; in assay [6] it was > 100 µM. The TGI in assay [7], in [8], in assay [9], in assay [10], in assay [11] and in assay [12] was > 100 µM each time. The concentration for total growth inhibition (TGI) in assay [13], in assay [14], in [16], in assay [17], in [18] and in assay [19] was > 100 µM in each case.
For the compound `CC1(C)CCCCCCCCCC(C)(CCCO)C1=O` (stereo not drawn), the TGI in [1] amounted to 30.7 µM; in assay [2] it was 31.6 µM; in assay [3], 33.7 µM; in [4], 45 µM; in [5] it was 37.9 µM; in [6] it was 31.4 µM. In addition, the TGI in assay [20] worked out at 73.7 µM; in assay [7], 30.6 µM; in assay [8], 31 µM; in [9], 29.1 µM; in assay [10], 30.5 µM; in assay [11], 35.8 µM. Further, the TGI in [12] amounted to 84.8 µM; in assay [13], 33.4 µM; in [14], 32.7 µM; in assay [16], 31.4 µM; in assay [17], 30.4 µM; in assay [18], 31.8 µM. The compound also registered a total growth inhibition concentration (TGI) in [19] of 24.4 µM.
Take `CS(=O)(=O)c1[nH]nc2[nH]c(=O)[nH]c(=O)c12`: the TGI in assay [1], in assay [2], in [3], in [4], in assay [5] and in [6] was > 10 µM in each case. The TGI in [7], in [8], in [9], in [10], in assay [11] and in assay [13] was > 10 µM each time. Besides, the TGI in assay [14], in assay [15], in assay [16], in [17] and in assay [18] was > 10 µM in each case.
For `Cn1c2ccccc2c(=O)c2c(O)cc3c(c21)C=CC1(CCCC1)O3`, the TGI in [1], in assay [2], in assay [3], in assay [4], in assay [5] and in assay [6] was > 100 µM each time. In addition, the TGI in [7], in assay [8], in [9], in assay [10], in assay [11] and in assay [12] was > 100 µM each time. The TGI in assay [13], in assay [14], in [15], in [16], in assay [17] and in assay [18] was > 100 µM in each case.
Consider `Cc1ccc(S(=O)(=O)[N-]C2C(=O)c3ccccc3C(=O)C2[n+]2cccc(C(N)=O)c2)cc1` (stereo not drawn), for which the TGI in assay [1], in assay [2], in assay [3], in assay [4], in [5] and in assay [6] was > 100 µM each time. Also, the total growth inhibition concentration (TGI) in [20], in [8], in assay [9], in [10], in assay [11] and in assay [12] was > 100 µM each time. In addition, the TGI in assay [13], in assay [14], in [15], in assay [16], in assay [17] and in assay [18] was > 100 µM each time. In [19], the TGI was > 100 µM.
Regarding `COc1ccc(C2CC(=O)Oc3ccccc3O2)cc1` (stereo not drawn), the TGI in assay [1], in assay [2], in assay [3], in [4], in [5] and in [6] was > 100 µM in each case. Also, the TGI in assay [20], in [8], in assay [9], in assay [10], in assay [11] and in assay [12] was > 100 µM each time. Besides, the TGI in assay [13], in assay [14], in assay [15], in assay [16], in [17] and in [18] was > 100 µM throughout. The TGI in assay [19] was > 100 µM.
Take `C/C(=N\NC(=O)/C(C#N)=C\c1ccc(N(CCC#N)CCC#N)cc1)c1ccccc1`: the TGI in assay [1], in assay [2], in assay [3], in [4], in [5] and in assay [6] was > 10 µM each time. For the same compound, the TGI in [7], in assay [8], in assay [9], in assay [10], in [11] and in [12] was > 10 µM throughout. Further, the TGI in [13], in [14], in [15], in assay [16], in assay [18] and in [19] was > 10 µM in each case.
As for `CC(C)(C)OC(=O)NC(Cc1ccc([N+](=O)[O-])cc1)C(=O)NCC(=O)OCc1ccccc1` (stereo not drawn) (Boc-[ξPhe(4-NO2)]-Gly-OBn), the TGI was 33.8 µM in assay [1]; 59.6 µM in assay [2]; 42 µM in assay [3]; > 100 µM in assay [4]; 54 µM in assay [5]; > 100 µM in [6]. Moreover, the TGI is 52.3 µM in [20]; 61.9 µM in assay [7]; 67.8 µM in assay [8]; 47.5 µM in assay [9]; > 100 µM in [10]; 52.4 µM in [11]. In addition, the concentration for total growth inhibition (TGI) was determined as 45.9 µM in [12]; 38.6 µM in assay [13]; 40.2 µM in assay [14]; 64.8 µM in assay [16]; 40.6 µM in [17]; 45.4 µM in assay [19].
Consider `Cc1cn(CC2=NCC(C)(C)CN2)c(=O)[nH]c1=O`, for which the TGI in assay [1], in assay [2], in [3], in assay [4], in [5] and in assay [6] was > 100 µM in each case. The TGI in assay [7], in assay [8], in [9], in assay [10], in assay [11] and in assay [13] was > 100 µM in each case. In addition, the TGI in assay [14], in [16], in [17], in assay [18] and in assay [19] was > 100 µM in each case.

As usually defined, the TGI is the concentration at which net growth stops. A low value points to more potent growth arrest.

Source of the values: PubChem BioAssay (NCI).
